Here are results for two molecules from patent US20240035063A1, “SYNTHETIC MIXED CULTURE RESEMBLING A SKIN MICROBIOME” (Evonik Operations GmbH, priority 2020, published 2024).

In assay [1] the test system is synthetic mixed culture resembling a skin microbiome (core microbiome model, strain mix ratio 1). Briefly: Aerobic cultivation of core skin microbiome model (ratio 1) with test compound, 16S rRNA sequencing. In kind it is cell-based. To be noted: ratio 1, compound added at T=0, T=28 h. As to the method: Individual bacterial strains are inoculated from cryocultures to initiate preculture growth. BHI Media (110493; Merck KGaA, 64293 Darmstadt) or DSMZ media 92 or DSMZ media 535 media according to the recommendations of the German Collection of Microorganisms and Cell Cultures GmbH are used for preculture cultivation. At the end of cultivation strains are diluted to result in an optical density of OD600=1 using BHI media. These single strain cultures are mixed in defined strain ratios depending on their growth properties. Cultivation is carried out using a BioLector [[…]-labs; Arnold-Sommerfeld-Ring 2, 52499 Baesweiler] small scale test system with MTP-48-BOH 1 plates. 100 μl of strain mix, according to the ratios in table 2 are added to 1 ml BHI media in resulting in a starting OD600 of 0.091. Cultivation is done at 37° C., a shaking frequency of 600 rpm and relative humidity of 85% for 28 h until the process is stopped. At the end of cultivation OD600 is determined, and the remaining culture is centrifuged at 4° C., 5000 rpm and 5 min in an Eppendorf table centrifuge. The supernatant is discarded, and the pellet is stored at -20° C. Genomic DNA is extracted from these samples using the DNeasy PowerSoil Pro Kit [Qiagen GmbH, QIAGEN Strasse 1, 40724 Hilden]. DNA samples are analyzed by LGC Genomics GmbH [Ostendstraße 25, 12459 Berlin] using primer pair 341 F, Seq. ID NO 1, and […], Seq. ID NO 2, or library preparation and […] MiSeq for sequencing. Results are processed by LGC Genomics GmbH and mapped to an individual reference database containing the sequences of the strains which are present in the individual model. Preculture cultivation, ratio mixing and cultivation is carried out as in example 1 or 2. Test compounds are added to the cultures at T=0, 4, 8, 12, 16, or 24 h. At the end of the cultivation samples are taken and processed as in example 1 or 2 and results are compared to non-treated cultures to evaluate the effect of the test compounds on the core microbiome model.

Assay [2] has the same test system. Briefly: Anaerobic cultivation of core skin microbiome model (ratio 1) with test compound. Format: cell-based. Particulars: ratio 1, compound added at T=0, T=22 h. The protocol:
Preculture cultivation and ratio mixing is carried out as in example 1. Anaerobic cultivation is done using a BioLector [[…]-labs; Arnold-Sommerfeld-Ring 2, 52499 Baesweiler] small scale test system with MTP-48-BOH 1 plates and the anaerobic module including an external mass flow controller for nitrogen (N2). 100 μl of strain mix, according to the ratios in table 2 are added to 1 ml BHI media resulting in a starting OD600 of 0.091. Cultivation is done at 37° C., a shaking frequency of 600 rpm and under nitrogen flushing for 22 h until the process is stopped. Preculture cultivation, ratio mixing and cultivation is carried out as in example 1 or 2. Test compounds are added to the cultures at T=0, 4, 8, 12, 16, or 24 h. At the end of the cultivation samples are taken and processed as in example 1 or 2 and results are compared to non-treated cultures to evaluate the effect of the test compounds on the core microbiome model.

Regarding `CN(CC(=O)O)C(=N)N` [Creatine], in assay [1] (vs non-treated culture), the “relative abundance of S. aureus” value is “slightly decreased”, the “relative abundance of S. epidermidis” value is “slightly increased”, the “relative abundance of S. hominis” value is “slightly increased” and the “shift compared to the baseline composition” value is “minor shift”. Moreover, in assay [2], the “general trends compared with aerobic conditions” value is reported as “remain the same”.

With sodium lauryl ether sulfate, the “abundance of all other species” value in assay [1] (species other than S. warneri (and S. capitis for the lysate)) is on record as “at the expense of all other Staphylococcus species”. In addition, in assay [1] (vs non-treated culture), the “abundance of S. warneri” value is on record as “significantly increased abundance”, the microbial diversity entry is “remarked loss of diversity” and the “shift compared to the baseline composition” value is given as “drastic microbial community shifts”. In addition, the “general trends compared with aerobic conditions” value in assay [2] is on record as “remain the same”.
